Patent US20230357440A1, “BISPECIFIC ANTIBODY AGAINST CD3 AND CD20 IN COMBINATION THERAPY FOR TREATING FOLLICULAR LYMPHOMA” (GENMAB A/S, priority 2020, published 2023)

What was measured:
[1] = tested on: Human Burkitt lymphoma Raji cells; format: cell-based; conditions: no epcoritamab, bendamustine 0-20 μM, 48 hours
Protocol: (§1) Bendamustine, an alkylating agent that causes intra- and inter-strand crosslinks between DNA bases, is approved for treatment of CLL and indolent B-NHL. This experiment was performed to determine whether bendamustine impacts the anti-tumor activity of epcoritamab by using in vitro T-cell activation and cytotoxicity assays.
(§2) Briefly, Human Burkitt lymphoma (Raji [ATCC, cat. no. CCL-86]) and DLBCL (SU-DHL-4 [Deutsche Sammlung von Mikroorganismen und Zellkulturen—DSMZ, cat. no. ACC-495]) cell lines were used as target cells. Cells were cultured in culture medium (RPMI 1640 with HEPES and L-Glutamine supplemented with 10% heat-inactivated donor bovine serum with iron, and 1% [v/v] penicillin/streptomycin) to which 2 mM L-glutamine, and 1 mM sodium pyruvate were added, at 37° C., 5% CO2. […] Isolated cells were washed twice in phosphate buffered saline (PBS) and counted using acridine orange/propidium iodide (AO/PI) viability staining solution (Nexcelom Bioscience) on a Cellometer® Auto 2000 Cell Viability Counter. […] B-cell viability and T-cell activation were measured by flow cytometry (count of CD22-positive cells; expression of the activation markers CD69, CD25, and CD107 [LAMP-1] on CD4+ and CD8+ T cells). The percentage cytotoxicity was calculated as follows: […]

DLBCL SU-DHL-4 cells = format: cell-based, human; conditions: no epcoritamab, bendamustine 0-20 μM, 48 hours
Protocol: as §1, §2

[2] = tested on: double-refractory follicular lymphoma; conditions: Salles et al., Haematologica 2017; cited from earlier work
[3] = tested on: T cells isolated from human healthy donor buffy coats; experiment: in vitro T-cell activation assay (flow cytometry; CD69, CD25, CD107/LAMP-1); format: cell-based
Protocol: as §1
Briefly, Human Burkitt lymphoma (Raji [ATCC, cat. no. CCL-86]) and DLBCL (SU-DHL-4 [Deutsche Sammlung von Mikroorganismen und Zellkulturen—DSMZ, cat. no. ACC-495]) cell lines were used as target cells. Cells were cultured in culture medium (RPMI 1640 with HEPES and L-Glutamine supplemented with 10% heat-inactivated donor bovine serum with iron, and 1% [v/v] penicillin/streptomycin) to which 2 mM L-glutamine, and 1 mM sodium pyruvate were added, at 37° C., 5% CO2. T cells, which were isolated from human healthy donor buffy coats by negative selection using the RosetteSep™ Human T Cell Enrichment Cocktail (Stemcell Technologies) followed by density centrifugation over a Ficoll gradient, both according to the manufacturer's instructions, were used as effector cells. Isolated cells were washed twice in phosphate buffered saline (PBS) and counted using acridine orange/propidium iodide (AO/PI) viability staining solution (Nexcelom Bioscience) on a Cellometer® Auto 2000 Cell Viability Counter. T cells (100,000 cells/well) were incubated with Raji or SU-DHL-4 cells (50,000 cells/well) in culture medium in the presence of epcoritamab (0.033 pg/mL-333 ng/mL) and bendamustine (0-20 μM) at 37° C., 5% CO2 for 48 hours. B-cell viability and T-cell activation were measured by flow cytometry (count of CD22-positive cells; expression of the activation markers CD69, CD25, and CD107 [LAMP-1] on CD4+ and CD8+ T cells). The percentage cytotoxicity was calculated as follows: […]

[4] = tested on: relapsed/refractory (R/R) B-NHL; experiment: epcoritamab monotherapy clinical trial in R/R B-NHL (NCT03625037); format: in vivo, human; conditions: R/R B-NHL patients, preliminary data
Description: Epcoritamab as monotherapy is currently in a clinical trial for the treatment of relapsed/refractory (R/R) B-NHL (ClinicalTrials.gov Identifier: NCT03625037).

[5] = tested on: previously untreated follicular lymphoma; experiment: Phase 1b study of epcoritamab in combination with rituximab and bendamustine (BR); format: in vivo
Protocol: The Part 1 dose escalation assesses the initial safety, tolerability, and clinical activity of epcoritamab in combination with BR. Epcoritamab is initially be administered in combination with BR in a 3-subject cohort. DLTs are evaluated during the first 28 days. Depending on the number of DLTs observed in the initial 3 subjects, administration of epcoritamab (full dose: 48 mg or 24 mg) in combination with BR is performed in an additional 3 patients as shown in FIG. 3.
In Part 2, epcoritamab is administered (with the dosing regimen determined in the dose escalation part) in combination with BR. The expansion will include 20 subjects in order to evaluate the preliminary clinical activity of the combination, in addition to safety, tolerability, PK, pharmacodynamic, and immunogenicity data.
A step-up dosing method is used for epcoritamab to mitigate the potential for CRS: priming dose (0.16 mg) on cycle 1 day 1, followed by intermediate dose (0.8 mg) on cycle 1 day 8, full dose (24 mg or 48 mg) on cycle 1 day 15 and day 22, and full dose in subsequent cycles. […] Bendamustine (90 mg/m^2) is administered intravenously daily on days 1 and 2 of cycles 1-6. If bendamustine is started later than day 1 of a cycle, then planned day 1 of the next cycle is calculated from the day when bendamustine was actually initiated in order to maintain the regular cycle interval of 28 days. […]
Safety is assessed by measuring adverse events, laboratory test results, ECGs, vital sign measurements, physical examination findings, and ECOG performance status. Also assessed are immune effector cell-associated neurotoxicity syndrome (e.g., as described by Lee et al., Biol BloodMarrow Transplant 2019; 25:625-638), constitutional symptoms (B symptoms), tumor flare reaction, and survival.

[6] = tested on: CD20-expressing Raji-luc tumor cells; conditions: even in the presence of an excess of rituximab variant with inert Fc domain (IgG1-RTX-FEAR); cited from earlier work
[7] = tested on: primary DLBCL and follicular lymphoma patient biopsies; conditions: cited from earlier work

With Cn1c(CCCC(=O)O)nc2cc(N(CCCl)CCCl)ccc21 [bendamustine, 4-[5-[Bis(2-chloroethyl)amino]-1-methyl-iH-benzo[d]imidazole-2-yl]butanoic acid] the “number of viable B cells, bendamustine alone” value [1] was “decreased the number of viable B cells in a dose dependent manner” and the “number of viable B cells, bendamustine alone” value (DLBCL SU-DHL-4 cells) was “decreased the number of viable B cells in a dose dependent manner”.
In the case of CC[C@H](Nc1ncnc2[nH]cnc12)c1nc2cccc(F)c2c(=O)n1-c1ccccc1 [idelalisib], the “1-year PFS” value [2] is listed as 43% and the toxicities [2] is listed as “several toxicities leading to treatment discontinuation”.
In the case of “epcoritamab: IgG1 bispecific CD3×CD20 antibody, heavy/light chains SEQ ID NOs: 24, 25 and 26, 27; CAS 2134641-34-0”, the “epcoritamab-induced T-cell activation in the presence of bendamustine” value ([3]; bendamustine 0-20 μM, Raji or SU-DHL-4 cells, 48 hours) is reported as “not affected by the presence of bendamustine at all concentrations tested”, the “upregulation of T-cell activation markers on CD4+ T cells in the presence of bendamustine” value ([3]; bendamustine 0-20 μM, data not shown) is reported as “not affected by bendamustine” and the “activation of CD8+ T cells (upregulation of CD69, CD25 and LAMP-1)” value ([3]; in presence of Raji or SU-DHL-4 cells, epcoritamab 0.033 pg/mL-333 ng/mL, 48 hours) is reported as “concentration-dependent activation of CD8+ T cells”. For the same compound, the dose-limiting toxicities [4] was “no dose-limiting toxicities reported”, the tolerated dose ([4]; up to at least 48 mg, including 60 mg) was “at least 48 mg” and the “responders in expansion phase” value ([5]; 48 mg expansion, as of Sep. 8, 2021, preliminary, non-validated data) was 1. The “responders in dose escalation phase” value ([5]; as of Sep. 8, 2021, 17 patients dosed in total, preliminary, non-validated data) was 5, the “grade of all CRS events” value ([5]; preliminary data) was “Grade ½” and the “most common related AEs” value ([5]; preliminary data) was “CRS and Nausea”. For the same compound, the “tumor growth in the xenograft model” value [6] was “effectively reduce tumor growth”, the tumor cell kill ([7]; biopsy taken 2 weeks after administering the anti-CD20 antibody) was “up to 40%” and the “T-cell-mediated cytotoxicity in patient biopsies” value [7] was “induced T-cell-mediated cytotoxicity”.
